The text below walks through data of US9751854B2 (Millennium Pharmaceuticals, Inc., priority 2014, dated 2017).

The target in one test is human VPS34 (Homo sapiens (Human), UniProt Q8NEB9). Briefly: Human VPS34 enzyme assay (Adapta TR-FRET ADP detection). The test is classed as biochemical. The arrangement: Percent Inhibition: dose or concentration left out as unconfirmed.
Sequence of human VPS34 (Q8NEB9 whole entry): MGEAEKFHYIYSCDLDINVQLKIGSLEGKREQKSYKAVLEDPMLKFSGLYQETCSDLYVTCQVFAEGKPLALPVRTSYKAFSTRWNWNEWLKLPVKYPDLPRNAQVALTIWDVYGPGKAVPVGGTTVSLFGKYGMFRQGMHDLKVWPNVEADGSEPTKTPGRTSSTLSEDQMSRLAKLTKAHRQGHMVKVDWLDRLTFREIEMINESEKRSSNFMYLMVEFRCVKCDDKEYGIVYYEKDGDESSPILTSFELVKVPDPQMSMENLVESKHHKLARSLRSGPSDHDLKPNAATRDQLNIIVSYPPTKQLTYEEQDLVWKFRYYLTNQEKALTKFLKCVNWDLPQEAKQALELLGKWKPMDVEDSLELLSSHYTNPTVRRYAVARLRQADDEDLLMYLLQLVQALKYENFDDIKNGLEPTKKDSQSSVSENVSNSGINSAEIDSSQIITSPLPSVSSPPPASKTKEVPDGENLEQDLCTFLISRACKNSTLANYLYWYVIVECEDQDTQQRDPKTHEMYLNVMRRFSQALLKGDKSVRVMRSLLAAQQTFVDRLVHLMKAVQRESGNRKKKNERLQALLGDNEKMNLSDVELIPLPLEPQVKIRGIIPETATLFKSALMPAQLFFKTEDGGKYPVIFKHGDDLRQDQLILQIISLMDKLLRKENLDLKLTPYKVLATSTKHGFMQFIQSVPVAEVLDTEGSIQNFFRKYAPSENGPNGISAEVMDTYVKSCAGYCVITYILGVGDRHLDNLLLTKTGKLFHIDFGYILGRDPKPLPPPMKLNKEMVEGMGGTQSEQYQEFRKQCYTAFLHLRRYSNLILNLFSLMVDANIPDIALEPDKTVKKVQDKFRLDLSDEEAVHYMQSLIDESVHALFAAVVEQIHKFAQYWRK
Settings: not given
A general note: In TR-FRET formats the signal depends on donor and acceptor labels being close together.
On to `CC(=O)Nc1cc(-c2cnc(N)c(S(=O)(=O)CC3CC3)c2)ccn1` [Compound I-208], for which the half-maximal inhibitory concentration (IC50) was 10 to 50 nM and the “Percent Inhibition” value is listed as more than 99%.
On to `CC(=O)Nc1cc(-c2cnc(C)c(NS(=O)(=O)c3cc(F)ccc3F)c2)ccn1` [Compound I-52], for which the “Percent Inhibition” value is reported as more than 99%.
Turning to `CC(=O)Nc1cc(-c2ccnc(Nc3ccnc(C4CC4)n3)c2)cn2nccc12` [Compound I-371, N-(6-{2-[(2-cyclopropylpyrimidin-4-yl)amino]pyridin-4-yl}pyrazolo[1,5-a]pyridin-4-yl)acetamide], the “Percent Inhibition” value was more than 99%.

The same test, now with this note: IC50 range class.
In turn, `CC(=O)Nc1cc(-c2cnc(C)c(NS(=O)(=O)c3ccc(C(F)(F)F)cc3Cl)c2)ccn1` [Compound I-196, N-[5-({[2-chloro-4-(trifluoromethyl)phenyl]sulfonyl}amino)-6-methyl-3,4′-bipyridin-2′-yl]acetamide] yielded an IC50 of less than 10 nM.
On the same count and under the same terms, next, `CCOC(=O)Nc1cc(-c2cnc(C)c(NS(=O)(=O)N(C)C)c2)ccn1` [Compound I-364, ethyl {5-[(dimethylsulfamoyl)amino]-6-methyl-3,4′-bipyridin-2′-yl}carbamate]: 10 to 50 nM; `CC(=O)Nc1cc(-c2cnc(C)c(NS(=O)(=O)c3cccc(F)c3F)c2)ccn1` [Compound I-377, N-(5-{[(2,3-difluorophenyl)sulfonyl]amino}-6-methyl-3,4′-bipyridin-2′-yl)acetamide]: 10 to 50 nM; `Cc1ncc(-c2ccnc(NC(=O)C3CCC3)c2)cc1NS(=O)(=O)c1ccc(F)cc1F` [Compound I-305, N-(5-{[(2,4-difluorophenyl)sulfonyl]amino}-6-methyl-3,4′-bipyridin-2′-yl)cyclobutanecarboxamide]: 10 to 50 nM.
In turn, `CC(=O)Nc1cc(-c2cc(S(C)(=O)=O)c[n+]([O-])c2)ccn1` [Compound I-191, N-{4-[5-(methylsulfonyl)-1-oxidopyridin-3-yl]pyridin-2-yl}acetamide] showed an IC50 of more than 100 nM.
`CC(=O)Nc1cc(-c2cnc(N)c(S(N)(=O)=O)c2)ccn1` [Compound I-61, N-(6-amino-5-sulfamoyl-3,4′-bipyridin-2′-yl)acetamide]: the IC50 lay within 10 to 50 nM.
In the case of `Cc1nccc(Nc2cc(-c3cnc(C)c(C(N)=O)c3)ccn2)n1` [Compound I-280, 6-methyl-2′-[(2-methylpyrimidin-4-yl)amino]-3,4′-bipyridine-5-carboxamide], the IC50 is more than 100 nM.
Still for that read-out and setting: as for `CC(=O)Nc1cc(-c2cncc(C(=O)N(C)C)c2)ccn1` [Compound I-48, 2′-acetamido-N,N-dimethyl-3,4′-bipyridine-5-carboxamide], the figure is more than 100 nM; as for `CNc1ncc(-c2ccnc(NC(C)=O)c2)cc1C(=O)NC12CC(C1)C2` [Compound I-160, 2′-acetamido-N-(bicyclo[1.1.1]pent-1-yl)-6-(methylamino)-3,4′-bipyridine-5-carboxamide], 10 to 50 nM.
Regarding `CC(=O)Nc1cc(-c2cnc(C)c(NS(=O)(=O)c3ccc(Cl)cc3Cl)c2)ccn1` [Compound I-30, N-(5-{[(2,4-dichlorophenyl)sulfonyl]amino}-6-methyl-3,4′-bipyridin-2′-yl)acetamide], the IC50 was less than 10 nM.
The same measure, in the same setting: as for `CC(=O)Nc1cc(-c2cnc3[nH]cc(CN(C)C)c3c2)ccn1` [Compound I-85, N-(4-{3-[(dimethylamino)methyl]-1H-pyrrolo[2,3-b]pyridin-5-yl}pyridin-2′-yl)acetamide], the figure is more than 100 nM; as for `CC(=O)Nc1cc(-c2cnc3[nH]ccc3c2)ccn1` [Compound I-140, N-[4-(1H-pyrrolo[2,3-b]pyridin-5-yl)pyridin-2-yl]acetamide], 10 to 50 nM.
Same read-out and setting: next, `CC(=O)Nc1cc(-c2cnc(Cl)c(N3CCCNS3(=O)=O)c2)ccn1` [Compound I-448, N-[6-chloro-5-(1,1-dioxido-1,2,6-thiadiazinan-2-yl)-3,4′-bipyridin-2′-yl]acetamide]: 10 to 50 nM.
Still for that read-out and setting: as for `CC(=O)Nc1cc(-c2cnc(C)c(NS(=O)(=O)c3ccc(C(C)C)cc3)c2)ccn1` [Compound I-134, N-(5-{[(4-isopropylphenyl)sulfonyl]amino}-6-methyl-3,4′-bipyridin-2′-yl)acetamide], the figure is 10 to 50 nM.
With `CC(=O)Nc1cc(-c2cnc(C)c(NC(C)=O)c2)ccn1` [Compound I-193, N,N′-(6-methyl-3,4′-bipyridine-2′,5-diyl)diacetamide], the concentration for half-maximal inhibition (IC50) fell in the range of 50 to 100 nM.
`Cc1nccc(Nc2cc(-c3cnc(C)c(N4CCCN(C)S4(=O)=O)c3)ccn2)n1` [Compound I-288, 6-methyl-5-(6-methyl-1,1-dioxido-1,2,6-thiadiazinan-2-yl)-N-(2-methylpyrimidin-4-yl)-3,4′-bipyridin-2′-amine] had an IC50 of 10 to 50 nM.
For `CC(=O)Nc1cc(-c2cnc(N)c(S(=O)(=O)Cc3ccccc3F)c2)ccn1` [Compound I-197, N-{6-amino-5-[(2-fluorobenzyl)sulfonyl]-3,4′-bipyridin-2′-yl]acetamide], the half-maximal inhibitory concentration (IC50) fell in the range of 10 to 50 nM.
On the same count and under the same terms, next, `CC(=O)Nc1cc(-c2cnc(C)c(NS(=O)(=O)c3ccc(Cl)cc3)c2)ccn1` [Compound I-154, N-(5-{[(4-chlorophenyl)sulfonyl]amino}-6-methyl-3,4′-bipyridin-2′-yl)acetamide]: less than 10 nM; `CC(=O)Nc1cc(-c2cnc(C)c(NS(=O)(=O)c3ccccc3F)c2)ccn1` [Compound I-144, N-[5-{[(2-fluorophenyl)sulfonyl]amino}-6-methyl-3,4′-bipyridin-2′-yl)acetamide]: less than 10 nM; `CC(=O)Nc1cc(-c2cnc3ccn(S(C)(=O)=O)c3c2)ccn1` [Compound I-33, N-{4-[1-(methylsulfonyl)-1H-pyrrolo[3,2-b]pyridin-6-yl]pyridin-2-yl}acetamide]: 10 to 50 nM.
On to `CC(=O)Nc1cc(-c2cnc(C)c(NS(=O)(=O)c3cc(F)ccc3F)c2)ccn1` [Compound I-52], for which the 50% inhibitory concentration (IC50) is less than 10 nM.
The same measure, in the same setting: next, `CC(=O)Nc1cc(-c2cnc(Cl)c(C(=O)N(C)C)c2)ccn1` [Compound I-213, 2′-acetamido-6-chloro-N,N-dimethyl-3,4′-bipyridine-5-carboxamide]: 50 to 100 nM.
Same read-out and setting: next, `Cc1ncc(-c2ccnc(NC(=O)C3CC3)c2)cc1NS(=O)(=O)N(C)C` [Compound I-311, N-{5-[(dimethylsulfamoyl)amino]-6-methyl-3,4′-bipyridin-2′-yl)cyclopropanecarboxamide]: less than 10 nM; `COC(=O)Nc1cc(-c2cnc(Cl)c(NS(=O)(=O)c3ccc(F)cc3F)c2C)ccn1` [Compound I-255, methyl (6-chloro-5-{[(2,4-difluorophenyl)sulfonyl]amino}-4-methyl-3,4′-bipyridin-2′-yl)carbamate]: less than 10 nM; `CC(=O)Nc1cc(-c2cnc(C)c(NS(=O)(=O)c3ccccc3Cl)c2)ccn1` [Compound I-109, N-(5-{[(2-chlorophenyl)sulfonyl]amino]-6-methyl-3,4′-bipyridin-2′-yl)acetamide]: less than 10 nM.
Still for that read-out and setting: as for `Cc1ncc(-c2ccnc(NC(=O)C3CC3)c2)cc1C(=O)N(C)C12CC(C1)C2` [Compound I-388, N-(bicyclo[1.1.1]pent-1-yl)-2′-[(cyclopropylcarbonyl)amino]-N,6-dimethyl-3,4′-bipyridine-5-carboxamide], the figure is 50 to 100 nM; as for `Cc1nccc(Nc2cc(-c3cnc(Cl)c(NC(=O)c4ccc(F)cc4F)c3C)ccn2)n1` [Compound I-295, N-{6-chloro-4-methyl-2′-[(2-methylpyrimidin-4-yl)amino]-3,4′-bipyridin-5-yl}-2,4-difluorobenzamide], 50 to 100 nM.
Regarding `CC(=O)Nc1cc(-c2cnc(C)c(NS(=O)(=O)c3ccc(F)cc3)c2)ccn1` [Compound I-185, N-(5-{[(4-fluorophenyl)sulfonyl]amino}-6-methyl-3,4′-bipyridin-2′-yl)acetamide], the IC50 is less than 10 nM.
Take `CNc1ncc(-c2ccnc(NC(C)=O)c2)cc1S(=O)(=O)Nc1ccccc1` [Compound I-100, N-[6-(methylamino)-5-(phenylsulfamoyl)-3,4′-bipyridin-2′-yl]acetamide]: the IC50 was less than 10 nM.
The same measure, in the same setting: as for `CNc1ncc(-c2ccnc(NC(C)=O)c2)c(C)c1S(=O)(=O)NC(C)(C)C` [Compound I-436], the figure is 50 to 100 nM; as for `CCOC(=O)Nc1cc(-c2cnc(Cl)c(NS(=O)(=O)c3ccc(F)cc3F)c2C)ccn1` [Compound I-383, ethyl (6-chloro-5-{[(2,4-difluorophenyl)sulfonyl]amino}-4-methyl-3,4′-bipyridin-2′-yl)carbamate], 10 to 50 nM; as for `COC(=O)Nc1cc(-c2cnc(C)c(NS(=O)(=O)c3ccc(F)cc3F)c2)ccn1` [Compound I-195, methyl (5-{[(2,4-difluorophenyl)sulfonyl]amino}-6-methyl-3,4′-bipyridin-2′-yl)carbamate], less than 10 nM.
Still for that read-out and setting: as for `Cc1ncc(-c2ccnc(Nc3ccnc(C(F)(F)F)n3)c2)cc1NS(=O)(=O)c1ccc(F)cc1F` [Compound I-237, 2,4-difluoro-N-(6-methyl-2′-{[2-(trifluoromethyl)pyrimidin-4-yl]amino}-3,4′-bipyridine-5-yl)benzenesulfonamide], the figure is 10 to 50 nM; as for `Cc1nccc(Nc2cc(-c3cnc(C)c(C(=O)N4CC(F)(F)C4)c3)ccn2)n1` [Compound I-221, (3,3-difluoroazetidin-1-yl){6-methyl-2′-[(2-methylpyrimidin-4-yl)amino]-3,4′-bipyridin-5-yl]methanone], 10 to 50 nM.
On the same count and under the same terms, next, `Cc1ncc(-c2ccnc(Nc3ccncn3)c2)cc1NS(=O)(=O)c1ccc(F)cc1F` [Compound I-239, 2,4-difluoro-N-(6-methyl-2′-(pyrimidin-4-ylamino)-3,4′-bipyridin-5-yl]benzenesulfonamide]: less than 10 nM; `Cc1ccc(Oc2cc(-c3ccnc(Nc4ccnc(C)n4)c3)cnc2C)nc1` [Compound I-390, 6-methyl-5-[(5-methylpyridin-2-yl)oxy]-N-(2-methylpyrimidin-4-yl)-3,4′-bipyridin-2′-amine]: 10 to 50 nM; `CC(=O)Nc1cc(-c2ccnc(Nc3ccnc(C4CC4)n3)c2)cn2nccc12` [Compound I-371, N-(6-{2-[(2-cyclopropylpyrimidin-4-yl)amino]pyridin-4-yl}pyrazolo[1,5-a]pyridin-4-yl)acetamide]: less than 10 nM.
`Cc1nccc(Nc2cc(-c3cnc(C)c(C(=O)O)c3)ccn2)n1` [Compound I-253, 6-methyl-2′-((2-methylpyrimidin-4-yl)amino)-[3,4′-bipyridine]-5-carboxylic acid] registered an IC50 of 10 to 50 nM.

Broadly, the IC50 is the concentration that gives 50% inhibition.
